Tests used:
Assay type in all cases: physicochemical
[1] = Solubility of compound ( form 1 ) in 150 uL water at 30 mg; settings: buffer
[2] = Solubility of compound ( form 1 ) in 10 uL water at 10 mg; settings: buffer
[3] = Stability under 3 month accelerated condition (40 degC/75% RH ) assessed as changes in purity or absorption of moisture; settings: 2191.5 h
[4] = Stability under 1-year ICH study conditions assessed as chemical or physical changes; settings: 8766 h
[5] = Stability under 2-year ICH study conditions assessed as chemical or physical changes; settings: 17532 h
[6] = Stability of the compound as a solid form exposed to heat at 100 degC incubated for 24 hrs by HPLC analysis
[7] = Stability of the compound as a solid form exposed to light (max 365 nm) incubated for 24 hrs by HPLC analysis
[8] = Stability of the compound as a solid form exposed to heat at 50 degC incubated for 24 hrs by HPLC analysis

Row | solubility [1] | solubility [2] | Stability [3] | Stability [4] | Stability [5] | Stability [6] | Stability [7] | Stability [8] | Structure (SMILES)
1 | Soluble | Soluble | Stable | – | – | – | – | – | Cl.NCc1cc(Oc2cccc(C(=O)N3C[C@@H](O)[C@H](F)C3)c2)nc(C(F)(F)F)c1
2 | – | – | – | Stable | Stable | Stable | Stable | Stable | CS(=O)(=O)O.NCc1cc(Oc2cccc(C(=O)N3C[C@@H](O)[C@H](F)C3)c2)nc(C(F)(F)F)c1
